Assays:
common chickweed (STEME) = assay: Test 21 growth chamber, postemergence; assay type: in vivo, Stellaria media; conditions: 19 DAA
Protocol: (§1) A test was conducted to evaluate the effects on winter barley (HORVW, Hordeum vulgare L.), winter wheat (TRZAW, Triticum aestivum L.), and several weed species, of mixtures of Compound 2 with the commercial herbicide (2,4-dichlorophenoxy)acetic acid (2,4-D), an auxin mimic. […] Plants were treated postemergence at the 2-4 leaf growth stage, and each treatment was replicated one time. […] Plants were watered as needed. […] Results are from single replicates.

kochia (KCHSC) = assay: Test 22 growth chamber, postemergence; assay type: in vivo, Kochia scoparia; conditions: 25 DAA
Protocol: as §1, with “species” for “species,”, “herbicides” for “herbicide”, “(2,4-D) and (4-chloro-2-methylphenoxy)acetic acid (MCPA),” for “(2,4-D), an”, “mimics.” for “mimic.”, “stage, except KCHSC, SASKR” for “stage,”, “STEME which were in the 4-8 leaf growth stage. Each” for “each”

common sugarcane (SACOF) = assay: Test 12 field trial, preemergence; assay type: in vivo, Saccharum officinarum; set-up: scale not given here; conditions: Cpd 2 or Cpd 1 62 g a.i./ha, Diuron 2000 g a.i./ha
Text: (§2) In early-mid spring season, corn seeds (hybrid ‘Pioneer 3041’) were planted 5 cm deep and sugarcane nodes (variety RB-72.454) were planted 10 cm deep in separate plots in a clay soil having 2.6% organic matter and a pH of 5.6. Plots were 24 m long by 1.5 m wide with rows spaced 80 cm (corn) or 140 cm (sugarcane) apart. Corn seeds were spaced 15 cm apart and sugarcane nodes were spaced 10 cm apart within the rows. At the same time, weed seeds were broadcast over the surface of separate plots without a crop, one weed species per plot. The weed plots were rotary tilled to incorporate the weed seeds to a variety of depths. The field was managed using conventional tillage practices.

[1] = test system: Italian cocklebur (XANSI); assay: Test 12 field trial, preemergence; assay type: in vivo, Xanthium strumarium ssp. italicum; set-up: scale not given here; conditions: Cpd 2 or Cpd 1 62 g a.i./ha, Diuron 2000 g a.i./ha
Text: as §2

flint corn (ZEAMI) = assay: Test 12 field trial, preemergence; assay type: in vivo, Zea mays L. ssp. indurata; conditions: Cpd 2 or Cpd 1 62 g a.i./ha, Diuron 2000 g a.i./ha
Text: as §2

velvetleaf (ABUTH) = assay: Test 14 field trial, preemergence, growth as percent of control; assay type: in vivo, Abutilon theophrasti
Text: (§3) Corn seeds (hybrid ‘Pioneer 31G96 RR’) were planted in mid spring season, 3.8 cm deep in a clay loam soil having 2% organic matter and a pH of 6.6. Plots were 6.1 m long by 3.0 m wide with rows spaced 76 cm apart. Seeds were spaced 15 cm apart within the rows. The field was managed using conventional tillage practices. […] Yellow nutsedge was only evaluated 19 and 28 days after application, and ivyleaf morningglory could only be evaluated 28 days after application. […] Results are the means of the three replicates. This growth inhibition data was converted to results in the form of “plant growth as a percent of control plant growth” using the calculation “100 minus growth inhibition”. […] For “growth as a percent of control” data, Colby's Equation calculates the expected additive effect of herbicidal mixtures having two active ingredients as follows:
(§4) Ga+b=GaGb/100 • wherein Ga+b is the growth as a percent of control of plants treated with the mixture expected from additive contribution of the individual components, • Ga is the observed growth as a percent of control of plants treated with the first active ingredient at the same use rate as in the mixture, and • Gb is the observed growth as a percent of control of plants treated with the second active ingredient at the same use rate as in the mixture. For mixtures having three active ingredients, Colby's Equation to calculate the expected additive effect of herbicidal mixtures is as follows:
(§5) Ga+b+c=GaGbGc/10,000 • wherein Ga and Gb are as defined above and • Ga+b+c is the growth as a percent of control of plants treated with the mixture expected from additive contribution of the individual components, and • Gc is the observed growth as a percent of control of plants treated with the third active ingredient at the same use rate as in the mixture. When these two forms of Colby's Equation are used, if the observed effects on weeds are less than the expected values, the mixture is synergistic.

[2] = test system: smallflower buttercup (RANAB); assay: Test 9 field trial, emerged weeds before corn planting; assay type: in vivo, Ranunculus abortivus; conditions: g a.i./ha: Cpd 2 100, Glyphosate 1540, Paraquat 1150
Protocol: Corn seeds (hybrid ‘Pioneer 34M91 RR’) were planted in mid spring season, about 3.8 cm deep in a silty clay loam soil having a pH of 6.7. Plots were 9.1 m long by 3.0 m. The field was managed using no-till practices. […] Compound 2 and paraquat treatments, alone and in combination, also included a surfactant. Glyphosate, alone and with Compound 2, included ammonium sulfate in the treatment mixture. […] The effects on the weeds in the treated plots and untreated control plots were recorded 7, 14, 23, 30 and 57 days after application. Most of the weed species could not be evaluated at every timing. Corn response was only evaluated 57 days after application. […] Results are the means of the three replicates.

giant ragweed (AMBTR) = assay: Test 14 field trial, preemergence, growth as percent of control; assay type: in vivo, Ambrosia trifida
Text: as §3, §4, §5

annual grasses (GGGAN) = assay: Test 7 field trial, preemergence; assay type: in vivo, Gramineae
Protocol: Plots were 7.6 m long by 3.0 m wide with rows spaced 76 cm apart. Seeds were spaced 15 cm apart within the rows. The field was managed using conventional tillage practices. […] Wild radish was evaluated 14 and 28 days after application. […] Results are the means of the three replicates.

O=C(O)COc1ccc(Cl)cc1Cl [2,4-D, (2,4-dichlorophenoxy)acetic acid]
Postemergence STEME Obs (common chickweed (STEME); 2,4-D alone 125 g a.i./ha): 50 | Postemergence STEME Obs (common chickweed (STEME); 2,4-D alone 250 g a.i./ha): 50 | Postemergence KCHSC Obs (kochia (KCHSC); 2,4-D or MCPA alone 250 g a.i./ha): 60

Nc1nc(C2CC2)nc(C(=O)O)c1Cl [Compound 1, 6-amino-5-chloro-2-cyclopropyl-4-pyrimidinecarboxylic acid]
SACOF Obs (common sugarcane (SACOF); 15 DAA): 0 | SACOF Obs (common sugarcane (SACOF); 29 DAA): 0 | SACOF Obs (common sugarcane (SACOF); 48 DAA): 0 | SACOF Obs (common sugarcane (SACOF); 61 DAA): 5 | XANSI Obs ([1]; 15 DAA): 40 | XANSI Obs ([1]; 29 DAA): 90 | XANSI Obs ([1]; 48 DAA): 90 | XANSI Obs ([1]; 61 DAA): 60 | ZEAMI Obs (flint corn (ZEAMI); 15 DAA): 0% | ZEAMI Obs (flint corn (ZEAMI); 29 DAA): 10% | ZEAMI Obs (flint corn (ZEAMI); 48 DAA): 20% | ZEAMI Obs (flint corn (ZEAMI); 61 DAA): 15%

COC(=O)c1nc(C2CC2)nc(N)c1Cl [Compound 2, methyl 6-amino-5-chloro-2-cyclopropyl-4-pyrimidinecarboxylate]
Obs growth % of control (velvetleaf (ABUTH); 19 DAA, 75 g a.i./ha): 80% | Obs growth % of control (velvetleaf (ABUTH); 19 DAA, 100 g a.i./ha): 60% | Obs growth % of control (velvetleaf (ABUTH); 28 DAA, 75 g a.i./ha): 43% | Obs growth % of control (velvetleaf (ABUTH); 28 DAA, 100 g a.i./ha): 22% | Obs growth % of control (velvetleaf (ABUTH); 56 DAA, 75 g a.i./ha): 43% | Obs growth % of control (velvetleaf (ABUTH); 56 DAA, 100 g a.i./ha): 30% | RANAB Obs ([2]; 7 DAA): 45% | RANAB Obs ([2]; 14 DAA): 40% | RANAB Obs ([2]; 23 DAA): 60% | RANAB Obs ([2]; 30 DAA): 65% | Postemergence STEME Obs (common chickweed (STEME); Cpd 2 alone 16 g a.i./ha): 65 | Obs growth % of control (giant ragweed (AMBTR); 19 DAA, 75 g a.i./ha): 65% | Obs growth % of control (giant ragweed (AMBTR); 19 DAA, 100 g a.i./ha): 73% | Obs growth % of control (giant ragweed (AMBTR); 28 DAA, 75 g a.i./ha): 100% | Obs growth % of control (giant ragweed (AMBTR); 28 DAA, 100 g a.i./ha): 23% | Obs growth % of control (giant ragweed (AMBTR); 56 DAA, 75 g a.i./ha): 20% | Obs growth % of control (giant ragweed (AMBTR); 56 DAA, 100 g a.i./ha): 18% | Postemergence KCHSC Obs (kochia (KCHSC); Cpd 2 alone 4 g a.i./ha): 45 | Postemergence KCHSC Obs (kochia (KCHSC); Cpd 2 alone 8 g a.i./ha): 50 | Postemergence KCHSC Obs (kochia (KCHSC); Cpd 2 alone 16 g a.i./ha): 60 | SACOF Obs (common sugarcane (SACOF); 15 DAA): 0 | SACOF Obs (common sugarcane (SACOF); 29 DAA): 0 | SACOF Obs (common sugarcane (SACOF); 48 DAA): 0 | SACOF Obs (common sugarcane (SACOF); 61 DAA): 5 | XANSI Obs ([1]; 15 DAA): 0 | XANSI Obs ([1]; 29 DAA): 70 | XANSI Obs ([1]; 48 DAA): 60 | XANSI Obs ([1]; 61 DAA): 40 | GGGAN Obs (annual grasses (GGGAN); 14 DAA, 125 g a.i./ha): 33% | GGGAN Obs (annual grasses (GGGAN); 14 DAA, 250 g a.i./ha): 65% | GGGAN Obs (annual grasses (GGGAN); 14 DAA, 500 g a.i./ha): 67% | GGGAN Obs (annual grasses (GGGAN); 28 DAA, 125 g a.i./ha): 33% | GGGAN Obs (annual grasses (GGGAN); 28 DAA, 250 g a.i./ha): 48% | GGGAN Obs (annual grasses (GGGAN); 28 DAA, 500 g a.i./ha): 52% | GGGAN Obs (annual grasses (GGGAN); 62 DAA, 125 g a.i./ha): 0% | GGGAN Obs (annual grasses (GGGAN); 62 DAA, 250 g a.i./ha): 0% | GGGAN Obs (annual grasses (GGGAN); 62 DAA, 500 g a.i./ha): 0% | ZEAMI Obs (flint corn (ZEAMI); 15 DAA): 15% | ZEAMI Obs (flint corn (ZEAMI); 29 DAA): 10% | ZEAMI Obs (flint corn (ZEAMI); 48 DAA): 0% | ZEAMI Obs (flint corn (ZEAMI); 61 DAA): 15%

O=C(O)CNCP(=O)(O)O [Glyphosate]
RANAB Obs ([2]; 7 DAA): 50% | RANAB Obs ([2]; 14 DAA): 80% | RANAB Obs ([2]; 23 DAA): 95% | RANAB Obs ([2]; 30 DAA): 100%

CCc1cccc(C)c1N(C(=O)CCl)[C@@H](C)COC [S-Metolachlor, S-metolachlor, reference compound]
Obs growth % of control (velvetleaf (ABUTH); 19 DAA, 1870 g a.i./ha): 68% | Obs growth % of control (velvetleaf (ABUTH); 28 DAA, 1870 g a.i./ha): 6% | Obs growth % of control (velvetleaf (ABUTH); 56 DAA, 1870 g a.i./ha): 87% | Obs growth % of control (giant ragweed (AMBTR); 19 DAA, 1870 g a.i./ha): 83% | Obs growth % of control (giant ragweed (AMBTR); 28 DAA, 1870 g a.i./ha): 88% | Obs growth % of control (giant ragweed (AMBTR); 56 DAA, 1870 g a.i./ha): 100% | GGGAN Obs (annual grasses (GGGAN); 14 DAA, 1000 g a.i./ha): 97% | GGGAN Obs (annual grasses (GGGAN); 28 DAA, 1000 g a.i./ha): 93% | GGGAN Obs (annual grasses (GGGAN); 62 DAA, 1000 g a.i./ha): 75%

Reference: US20100285959A1, “HERBICIDAL MIXTURES” (priority 2006, published 2010)
